# From PubChem BioAssay AID2060513 (Molecular Pharmacology Branch, DTP, NCI, 2025)
# Test system: 299254-011-R-J1-PDC complex spheroids viability
# Experiment: Anticancer human tumor 299254-011-R-J1-PDC patient-derived melanoma cell line growth inhibition [GQUAD]
# Details: for IC50: curve of first compound; for viability, T/C: stronger effect = lower value
# How it was run: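 Multi-cell-type spheroids of tumor cells with HUVEC and mesenchymal stem cells, treated with drug combinations. Concentrations descend in half-log steps from near clinical Cmax, or from 10 microM where Cmax is unknown; viability read-out.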
# [1] = second compound 0.0316 µM, first compound 0.0316 µM
# [2] = second compound 0.0316 µM, first compound 0.1 µM
# [3] = second compound 0.0316 µM, first compound 0.316 µM
# [4] = second compound 0.0316 µM, first compound 1 µM
# [5] = second compound 0.0316 µM, first compound 3.16 µM
# [6] = second compound 0.0316 µM, first compound 10 µM
# [7] = second compound 0.1 µM, first compound 0.0316 µM
# [8] = second compound 0.1 µM, first compound 0.1 µM
# [9] = second compound 0.1 µM, first compound 0.316 µM
# [10] = second compound 0.1 µM, first compound 1 µM
# [11] = second compound 0.1 µM, first compound 3.16 µM
# [12] = second compound 0.1 µM, first compound 10 µM
# [13] = second compound 0.316 µM, first compound 0.0316 µM
# [14] = second compound 0.316 µM, first compound 0.1 µM
# [15] = second compound 0.316 µM, first compound 0.316 µM
# [16] = second compound 0.316 µM, first compound 1 µM
# [17] = second compound 0.316 µM, first compound 3.16 µM
# [18] = second compound 0.316 µM, first compound 10 µM
# [19] = second compound 1 µM, first compound 0.0316 µM
# [20] = second compound 1 µM, first compound 0.1 µM
# [21] = second compound 1 µM, first compound 0.316 µM
# [22] = second compound 1 µM, first compound 1 µM
# [23] = second compound 1 µM, first compound 3.16 µM
# [24] = second compound 1 µM, first compound 10 µM
# [25] = second compound 3.16 µM, first compound 0.0316 µM
# [26] = second compound 3.16 µM, first compound 0.1 µM
# [27] = second compound 3.16 µM, first compound 0.316 µM
# [28] = second compound 3.16 µM, first compound 1 µM
# [29] = second compound 3.16 µM, first compound 3.16 µM
# [30] = second compound 3.16 µM, first compound 10 µM
# [31] = second compound 10 µM, first compound 0.0316 µM
# [32] = second compound 10 µM, first compound 0.1 µM
# [33] = second compound 10 µM, first compound 0.316 µM
# [34] = second compound 10 µM, first compound 1 µM
# [35] = second compound 10 µM, first compound 3.16 µM
# [36] = second compound 10 µM, first compound 10 µM
# 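Also: spheroids exposed to the agents for seven days before readout.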
# 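For viability, T/C in this document: percent viability relative to DMSO vehicle control wells = 100%.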
structure (smiles),measurement,setting,value
COc1cccc2c1C(=O)c1c(O)c3c(c(O)c1C2=O)CC(O)(C(=O)CO)CC3OC1CC(N)C(O)C(C)O1 (stereo not drawn) + Cc1cnc(CNC(=O)c2c(=O)c3ccc(N4CCCN(C)CC4)nc3n3c2sc2ccccc23)cn1,IC50,second compound 0.0316 µM,4.26 µM
same,IC50,second compound 0.1 µM,4.92 µM
same,IC50,second compound 0.316 µM,3.64 µM
same,IC50,second compound 1 µM,3.99 µM
same,IC50,second compound 3.16 µM,2.38 µM
same,IC50,second compound 10 µM,0.0316 µM
same,"viability, T/C",[1],104%
same,"viability, T/C",[2],106%
same,"viability, T/C",[3],87%
same,"viability, T/C",[4],88.3%
same,"viability, T/C",[5],61.3%
same,"viability, T/C",[6],16.9%
same,"viability, T/C",[7],110%
same,"viability, T/C",[8],104%
same,"viability, T/C",[9],95.2%
same,"viability, T/C",[10],88.2%
same,"viability, T/C",[11],70.5%
same,"viability, T/C",[12],20.9%
same,"viability, T/C",[13],83.3%
same,"viability, T/C",[14],95%
same,"viability, T/C",[15],75.9%
same,"viability, T/C",[16],78.9%
same,"viability, T/C",[17],54.9%
same,"viability, T/C",[18],11.1%
same,"viability, T/C",[19],81.2%
same,"viability, T/C",[20],76.3%
same,"viability, T/C",[21],86.7%
same,"viability, T/C",[22],76.4%
same,"viability, T/C",[23],63%
same,"viability, T/C",[24],0.21%
same,"viability, T/C",[25],84.8%
same,"viability, T/C",[26],87.7%
same,"viability, T/C",[27],66.2%
same,"viability, T/C",[28],78.2%
same,"viability, T/C",[29],41.1%
same,"viability, T/C",[30],0.21%
same,"viability, T/C",[31],38.2%
same,"viability, T/C",[32],19.6%
same,"viability, T/C",[33],53.9%
same,"viability, T/C",[34],63.3%
same,"viability, T/C",[35],0.39%
same,"viability, T/C",[36],0.28%
CC1COCCN1c1cc(-c2ccnn2C)c2ccnc(-c3ccn[nH]3)c2n1 (stereo not drawn) + Cc1cnc(CNC(=O)c2c(=O)c3ccc(N4CCCN(C)CC4)nc3n3c2sc2ccccc23)cn1,IC50,second compound 0.0316 µM,0.114 µM
same,IC50,second compound 0.1 µM,0.121 µM
same,IC50,second compound 0.316 µM,< 0.0316 µM
same,IC50,second compound 1 µM,< 0.0316 µM
same,IC50,second compound 3.16 µM,< 0.0316 µM
same,IC50,second compound 10 µM,< 0.0316 µM
same,"viability, T/C",[1],99.1%
same,"viability, T/C",[2],48.2%
same,"viability, T/C",[3],37.9%
same,"viability, T/C",[4],17.6%
same,"viability, T/C",[5],20%
same,"viability, T/C",[6],13.2%
same,"viability, T/C",[7],84.5%
same,"viability, T/C",[8],55.3%
same,"viability, T/C",[9],23.4%
same,"viability, T/C",[10],14.4%
same,"viability, T/C",[11],17.2%
same,"viability, T/C",[12],12.9%
same,"viability, T/C",[13],40.9%
same,"viability, T/C",[14],32.9%
same,"viability, T/C",[15],23.6%
same,"viability, T/C",[16],17.5%
same,"viability, T/C",[17],16.8%
same,"viability, T/C",[18],12.6%
same,"viability, T/C",[19],22%
same,"viability, T/C",[20],22.2%
same,"viability, T/C",[21],22.3%
same,"viability, T/C",[22],18.8%
same,"viability, T/C",[23],13%
same,"viability, T/C",[24],15.2%
same,"viability, T/C",[25],26.5%
same,"viability, T/C",[26],26.2%
same,"viability, T/C",[27],18%
same,"viability, T/C",[28],13.4%
same,"viability, T/C",[29],14.9%
same,"viability, T/C",[30],16.7%
same,"viability, T/C",[31],0.18%
same,"viability, T/C",[32],0.22%
same,"viability, T/C",[33],2.32%
same,"viability, T/C",[34],0.18%
same,"viability, T/C",[35],0.23%
same,"viability, T/C",[36],0.22%
Cc1cccc(N(C)C(=O)C2C(O)CCN2c2nc(C)cc(C(F)(F)F)c2C#N)c1 (stereo not drawn) + Cc1[nH]c2ccc(F)cc2c1-c1nc2c3cccnc3c3ncccc3c2[nH]1,IC50,second compound 0.0316 µM,> 10 µM
same,IC50,second compound 0.1 µM,> 10 µM
same,IC50,second compound 0.316 µM,> 10 µM
same,IC50,second compound 1 µM,> 10 µM
same,IC50,second compound 3.16 µM,> 10 µM
same,IC50,second compound 10 µM,> 10 µM
same,"viability, T/C",[1],104%
same,"viability, T/C",[2],104%
same,"viability, T/C",[3],112%
same,"viability, T/C",[4],90%
same,"viability, T/C",[5],82.1%
same,"viability, T/C",[6],90.6%
same,"viability, T/C",[7],86.7%
same,"viability, T/C",[8],95.2%
same,"viability, T/C",[9],92.1%
same,"viability, T/C",[10],77.5%
same,"viability, T/C",[11],90.4%
same,"viability, T/C",[12],112%
same,"viability, T/C",[13],114%
same,"viability, T/C",[14],114%
same,"viability, T/C",[15],100%
same,"viability, T/C",[16],88.5%
same,"viability, T/C",[17],137%
same,"viability, T/C",[18],82.8%
same,"viability, T/C",[19],109%
same,"viability, T/C",[20],85.7%
same,"viability, T/C",[21],83.9%
same,"viability, T/C",[22],109%
same,"viability, T/C",[23],103%
same,"viability, T/C",[24],102%
same,"viability, T/C",[25],91.3%
same,"viability, T/C",[26],122%
same,"viability, T/C",[27],91.4%
same,"viability, T/C",[28],98.6%
same,"viability, T/C",[29],116%
same,"viability, T/C",[30],94.5%
same,"viability, T/C",[31],93.8%
same,"viability, T/C",[32],116%
same,"viability, T/C",[33],103%
same,"viability, T/C",[34],89.5%
same,"viability, T/C",[35],84.9%
same,"viability, T/C",[36],84.1%
COc1ncnc(C2CC2)c1-c1ncc2cnn(Cc3ccc(-c4nc(C(F)(F)F)cn4C(C)C)cc3)c2n1 + Cc1[nH]c2ccc(F)cc2c1-c1nc2c3cccnc3c3ncccc3c2[nH]1,IC50,second compound 0.0316 µM,> 10 µM
same,IC50,second compound 0.1 µM,> 10 µM
same,IC50,second compound 0.316 µM,> 10 µM
same,IC50,second compound 1 µM,> 10 µM
same,IC50,second compound 3.16 µM,> 10 µM
same,IC50,second compound 10 µM,> 10 µM
same,"viability, T/C",[1],106%
same,"viability, T/C",[2],98.9%
same,"viability, T/C",[3],101%
same,"viability, T/C",[4],100%
same,"viability, T/C",[5],107%
same,"viability, T/C",[6],100%
same,"viability, T/C",[7],120%
same,"viability, T/C",[8],96.1%
same,"viability, T/C",[9],110%
same,"viability, T/C",[10],104%
same,"viability, T/C",[11],111%
same,"viability, T/C",[12],83.5%
same,"viability, T/C",[13],105%
same,"viability, T/C",[14],107%
same,"viability, T/C",[15],98.7%
same,"viability, T/C",[16],92%
same,"viability, T/C",[17],92.9%
same,"viability, T/C",[18],84.6%
same,"viability, T/C",[19],129%
same,"viability, T/C",[20],107%
same,"viability, T/C",[21],102%
same,"viability, T/C",[22],94.2%
same,"viability, T/C",[23],103%
same,"viability, T/C",[24],112%
same,"viability, T/C",[25],104%
same,"viability, T/C",[26],113%
same,"viability, T/C",[27],108%
same,"viability, T/C",[28],88.6%
same,"viability, T/C",[29],99.8%
same,"viability, T/C",[30],106%
same,"viability, T/C",[31],91%
same,"viability, T/C",[32],100%
same,"viability, T/C",[33],108%
same,"viability, T/C",[34],114%
same,"viability, T/C",[35],106%
same,"viability, T/C",[36],81.8%
